Measured values as given in patent publication US8703961B2, “Thiazole derivatives for the treatment of diseases such as cancer” (Merck Patent GmbH, priority 2009, dated 2014).

Assays:
Test in all cases: filter binding kinase assay
Format in all cases: biochemical
[1] = biological target: T1, BRSK1 (Homo sapiens, UniProt Q8TDC3); settings: derived from % inhibition at 1 μM
T1 construct: purchased
T1 sequence (Q8TDC3 1-778): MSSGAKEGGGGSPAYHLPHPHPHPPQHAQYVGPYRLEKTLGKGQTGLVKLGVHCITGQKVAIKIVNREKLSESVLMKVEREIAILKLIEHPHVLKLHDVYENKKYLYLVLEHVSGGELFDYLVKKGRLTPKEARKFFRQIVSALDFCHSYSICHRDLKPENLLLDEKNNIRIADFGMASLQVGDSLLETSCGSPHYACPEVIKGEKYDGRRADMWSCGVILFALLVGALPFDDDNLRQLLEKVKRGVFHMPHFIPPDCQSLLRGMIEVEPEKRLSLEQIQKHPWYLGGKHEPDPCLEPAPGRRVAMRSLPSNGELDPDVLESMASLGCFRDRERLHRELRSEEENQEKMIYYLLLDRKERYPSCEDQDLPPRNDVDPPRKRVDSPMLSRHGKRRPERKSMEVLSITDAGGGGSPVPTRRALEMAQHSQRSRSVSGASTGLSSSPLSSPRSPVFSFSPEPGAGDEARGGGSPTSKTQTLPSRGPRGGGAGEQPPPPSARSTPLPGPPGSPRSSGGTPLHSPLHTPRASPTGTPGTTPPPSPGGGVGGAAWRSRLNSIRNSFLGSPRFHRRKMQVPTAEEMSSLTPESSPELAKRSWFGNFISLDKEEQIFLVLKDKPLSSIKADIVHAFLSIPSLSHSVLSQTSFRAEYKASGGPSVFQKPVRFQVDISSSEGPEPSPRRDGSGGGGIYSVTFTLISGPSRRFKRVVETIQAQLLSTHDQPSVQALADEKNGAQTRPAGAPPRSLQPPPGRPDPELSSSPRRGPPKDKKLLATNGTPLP
Description: (§1) All kinase assays were carried out using the Multidrop 384 from Thermo-Fisher at room temperature in a total assay volume of 25.5 μl. 15 μl of an enzyme mix comprising enzyme and substrate in buffer are added to the test batch comprising either 0.5 μl of test substance, DMSO control or empty container. Test substances are pre-incubated in the presence of the enzyme and substrate for 5 minutes before the reaction is initiated by addition of 10 μl of ATP (concentration kinase-dependent of […]). The reaction is terminated by addition of 5 μl of orthophosphoric acid (50 mM). The test containers are then transferred onto P81 Unifilter plates by means of a “Packard Harvester” and dried in air. The dry Unifilter plates are sealed after the addition of MicroScint O, and the radioactivity is determined in a Packard Topcount NXT.

[2] = biological target: T2, CHEK2 (Homo sapiens, UniProt O96017); settings: derived from % inhibition at 1 μM
T2 construct: purchased
Description: as §1

[3] = biological target: T3, INSRR (Homo sapiens, UniProt P14616); settings: derived from % inhibition at 1 μM
T3 construct: purchased
Description: as §1

[4] = biological target: T4, MAPKAPK3 (Homo sapiens, UniProt Q16644); settings: derived from % inhibition at 1 μM
T4 construct: purchased
Description: as §1

[5] = biological target: T5, PLK1 (Homo sapiens, UniProt P53350); settings: derived from % inhibition at 1 μM
T5 construct: purchased
Description: as §1

[6] = biological target: T6, SGK (Homo sapiens, UniProt O00141); settings: derived from % inhibition at 1 μM
T6 construct: purchased
T6 sequence (O00141 1-431): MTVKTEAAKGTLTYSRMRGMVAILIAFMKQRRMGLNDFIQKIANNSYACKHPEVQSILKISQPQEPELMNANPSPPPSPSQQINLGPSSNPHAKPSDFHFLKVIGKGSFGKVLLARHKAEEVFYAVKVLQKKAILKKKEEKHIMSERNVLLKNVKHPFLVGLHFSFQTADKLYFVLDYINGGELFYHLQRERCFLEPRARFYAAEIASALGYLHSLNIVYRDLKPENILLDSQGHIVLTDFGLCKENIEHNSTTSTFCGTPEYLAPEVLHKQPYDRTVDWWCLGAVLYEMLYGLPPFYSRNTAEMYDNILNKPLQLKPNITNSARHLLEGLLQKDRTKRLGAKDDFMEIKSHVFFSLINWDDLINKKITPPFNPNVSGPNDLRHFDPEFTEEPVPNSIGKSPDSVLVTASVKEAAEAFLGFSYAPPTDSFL
Description: as §1

[7] = biological target: T7, MAPKAPK5 (Homo sapiens, UniProt Q8IW41); settings: derived from % inhibition at 1 μM
T7 construct: purchased
T7 sequence (Q8IW41 1-473): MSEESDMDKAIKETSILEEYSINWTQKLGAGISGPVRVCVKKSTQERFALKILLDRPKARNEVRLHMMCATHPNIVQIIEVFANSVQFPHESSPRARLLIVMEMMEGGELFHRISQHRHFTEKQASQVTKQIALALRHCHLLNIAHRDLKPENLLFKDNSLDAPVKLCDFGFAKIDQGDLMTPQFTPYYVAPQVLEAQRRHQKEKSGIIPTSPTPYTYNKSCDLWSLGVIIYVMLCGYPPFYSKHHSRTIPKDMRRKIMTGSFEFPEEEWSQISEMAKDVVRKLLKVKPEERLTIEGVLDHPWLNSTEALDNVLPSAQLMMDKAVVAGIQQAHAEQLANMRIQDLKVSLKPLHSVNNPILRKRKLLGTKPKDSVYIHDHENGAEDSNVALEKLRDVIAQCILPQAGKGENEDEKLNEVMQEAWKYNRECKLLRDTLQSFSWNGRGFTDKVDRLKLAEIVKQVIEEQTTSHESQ
Description: as §1

[8] = biological target: T8, MAPKAPK2 (Homo sapiens, UniProt P49137); settings: derived from % inhibition at 1 μM
T8 construct: purchased
Description: as §1

[9] = biological target: T9, CSNK2A1 (CK2) (Homo sapiens, UniProt P68400); settings: for IC50: derived from % inhibition at 1 μM
T9 construct: purchased
Description: as §1

[10] = biological target: T10, MAPK1 (Homo sapiens, UniProt P28482); settings: derived from % inhibition at 1 μM; first MAPK1 line
T10 construct: purchased
Description: as §1

[11] = biological target: T11, AKT2 (Homo sapiens, UniProt P31751); settings: derived from % inhibition at 1 μM
T11 construct: purchased
Description: as §1

T5 sequence (P53350 whole entry, species assumed): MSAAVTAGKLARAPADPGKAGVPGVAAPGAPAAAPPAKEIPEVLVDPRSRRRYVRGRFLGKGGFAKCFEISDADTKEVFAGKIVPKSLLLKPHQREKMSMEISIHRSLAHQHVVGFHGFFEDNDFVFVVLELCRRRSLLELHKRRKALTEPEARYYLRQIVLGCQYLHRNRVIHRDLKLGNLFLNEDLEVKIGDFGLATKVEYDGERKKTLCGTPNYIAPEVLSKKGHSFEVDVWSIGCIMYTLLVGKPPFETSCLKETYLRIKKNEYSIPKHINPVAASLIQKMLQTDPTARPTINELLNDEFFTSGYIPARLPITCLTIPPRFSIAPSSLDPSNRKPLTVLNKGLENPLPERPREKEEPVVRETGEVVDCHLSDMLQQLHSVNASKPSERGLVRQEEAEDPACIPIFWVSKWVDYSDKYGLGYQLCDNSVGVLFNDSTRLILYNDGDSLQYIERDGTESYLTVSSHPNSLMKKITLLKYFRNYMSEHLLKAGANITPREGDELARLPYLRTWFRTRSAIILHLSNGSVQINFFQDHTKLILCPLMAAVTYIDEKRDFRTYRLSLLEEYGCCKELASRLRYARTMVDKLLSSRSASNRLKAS
T10 sequence (P28482 whole entry, species assumed): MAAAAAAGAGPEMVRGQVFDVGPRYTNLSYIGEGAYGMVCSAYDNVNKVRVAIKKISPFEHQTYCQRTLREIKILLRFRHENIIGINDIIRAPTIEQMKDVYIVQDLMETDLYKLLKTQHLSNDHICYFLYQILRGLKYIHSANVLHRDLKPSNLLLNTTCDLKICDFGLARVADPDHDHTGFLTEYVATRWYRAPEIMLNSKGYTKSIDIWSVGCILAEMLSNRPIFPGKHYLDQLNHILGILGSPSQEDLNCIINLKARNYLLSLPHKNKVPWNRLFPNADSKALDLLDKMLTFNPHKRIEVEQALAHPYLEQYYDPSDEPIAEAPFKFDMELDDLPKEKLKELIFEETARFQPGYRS
T9 sequence (P68400 whole entry, species assumed): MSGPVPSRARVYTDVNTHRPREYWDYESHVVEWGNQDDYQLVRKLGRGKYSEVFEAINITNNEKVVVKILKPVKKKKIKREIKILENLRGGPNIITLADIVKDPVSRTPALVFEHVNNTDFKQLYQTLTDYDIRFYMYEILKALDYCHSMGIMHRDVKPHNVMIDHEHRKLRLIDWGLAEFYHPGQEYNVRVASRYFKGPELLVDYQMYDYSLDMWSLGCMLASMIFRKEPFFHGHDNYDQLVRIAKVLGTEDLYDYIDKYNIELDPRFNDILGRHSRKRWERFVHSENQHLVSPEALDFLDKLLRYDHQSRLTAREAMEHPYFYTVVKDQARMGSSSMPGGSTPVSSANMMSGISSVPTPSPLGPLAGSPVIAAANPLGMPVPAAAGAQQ
T3 sequence (P14616 27-1297, species assumed): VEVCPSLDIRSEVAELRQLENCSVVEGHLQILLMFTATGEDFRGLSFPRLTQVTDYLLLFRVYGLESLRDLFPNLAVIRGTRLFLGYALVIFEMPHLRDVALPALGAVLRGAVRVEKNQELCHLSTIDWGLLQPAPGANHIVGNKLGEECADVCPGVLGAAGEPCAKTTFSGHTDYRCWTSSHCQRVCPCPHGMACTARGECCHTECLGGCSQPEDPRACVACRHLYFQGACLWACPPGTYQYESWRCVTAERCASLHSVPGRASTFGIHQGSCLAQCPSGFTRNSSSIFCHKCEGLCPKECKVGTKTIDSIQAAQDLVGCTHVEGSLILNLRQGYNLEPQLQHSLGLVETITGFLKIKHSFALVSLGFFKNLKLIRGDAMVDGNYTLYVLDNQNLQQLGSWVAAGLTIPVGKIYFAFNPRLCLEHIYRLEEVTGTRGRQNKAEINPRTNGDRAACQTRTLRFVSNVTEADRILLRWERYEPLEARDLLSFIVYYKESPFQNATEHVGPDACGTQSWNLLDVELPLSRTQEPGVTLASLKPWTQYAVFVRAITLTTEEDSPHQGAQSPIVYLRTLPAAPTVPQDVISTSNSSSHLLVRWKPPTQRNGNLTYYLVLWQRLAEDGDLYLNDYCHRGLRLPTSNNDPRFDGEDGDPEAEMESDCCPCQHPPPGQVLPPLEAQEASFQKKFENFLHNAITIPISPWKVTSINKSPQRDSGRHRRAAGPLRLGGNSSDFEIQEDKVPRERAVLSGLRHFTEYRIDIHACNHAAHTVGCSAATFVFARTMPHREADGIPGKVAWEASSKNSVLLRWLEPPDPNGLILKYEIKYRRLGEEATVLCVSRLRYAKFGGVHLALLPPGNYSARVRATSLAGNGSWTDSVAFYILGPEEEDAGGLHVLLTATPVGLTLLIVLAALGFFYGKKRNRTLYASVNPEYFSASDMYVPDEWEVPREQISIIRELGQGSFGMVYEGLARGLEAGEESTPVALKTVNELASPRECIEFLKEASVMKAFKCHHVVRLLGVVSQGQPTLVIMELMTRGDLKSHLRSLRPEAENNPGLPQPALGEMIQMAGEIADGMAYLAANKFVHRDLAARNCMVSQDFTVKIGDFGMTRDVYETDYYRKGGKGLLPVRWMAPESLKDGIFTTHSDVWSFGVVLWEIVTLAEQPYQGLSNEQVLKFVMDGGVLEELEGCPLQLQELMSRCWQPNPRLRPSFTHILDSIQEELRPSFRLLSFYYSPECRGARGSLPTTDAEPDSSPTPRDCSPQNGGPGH
T2 sequence (O96017 whole entry, species assumed): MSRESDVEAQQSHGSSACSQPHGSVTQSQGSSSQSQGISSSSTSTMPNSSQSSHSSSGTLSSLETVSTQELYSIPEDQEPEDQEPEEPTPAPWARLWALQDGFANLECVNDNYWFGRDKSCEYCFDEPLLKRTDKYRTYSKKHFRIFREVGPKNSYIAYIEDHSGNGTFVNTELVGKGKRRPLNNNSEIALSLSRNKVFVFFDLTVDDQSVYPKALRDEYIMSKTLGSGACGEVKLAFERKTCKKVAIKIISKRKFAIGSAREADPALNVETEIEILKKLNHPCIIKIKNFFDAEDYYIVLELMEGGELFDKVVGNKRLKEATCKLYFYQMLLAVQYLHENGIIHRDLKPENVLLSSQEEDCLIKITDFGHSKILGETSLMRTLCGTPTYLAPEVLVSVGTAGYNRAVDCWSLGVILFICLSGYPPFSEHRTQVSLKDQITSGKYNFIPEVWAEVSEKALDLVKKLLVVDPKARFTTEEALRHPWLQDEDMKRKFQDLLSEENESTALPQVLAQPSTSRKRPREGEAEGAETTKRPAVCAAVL
T4 sequence (Q16644 whole entry, species assumed): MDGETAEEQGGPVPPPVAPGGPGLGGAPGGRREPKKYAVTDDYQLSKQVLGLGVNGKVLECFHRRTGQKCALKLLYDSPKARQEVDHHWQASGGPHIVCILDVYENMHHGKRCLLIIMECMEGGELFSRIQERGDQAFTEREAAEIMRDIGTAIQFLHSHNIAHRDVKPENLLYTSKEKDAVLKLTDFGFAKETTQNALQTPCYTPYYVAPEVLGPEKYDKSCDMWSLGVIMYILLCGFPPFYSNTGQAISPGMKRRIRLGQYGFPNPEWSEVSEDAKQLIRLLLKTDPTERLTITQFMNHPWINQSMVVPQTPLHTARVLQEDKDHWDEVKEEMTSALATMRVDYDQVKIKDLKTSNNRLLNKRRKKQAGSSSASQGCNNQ
T8 sequence (P49137 whole entry, species assumed): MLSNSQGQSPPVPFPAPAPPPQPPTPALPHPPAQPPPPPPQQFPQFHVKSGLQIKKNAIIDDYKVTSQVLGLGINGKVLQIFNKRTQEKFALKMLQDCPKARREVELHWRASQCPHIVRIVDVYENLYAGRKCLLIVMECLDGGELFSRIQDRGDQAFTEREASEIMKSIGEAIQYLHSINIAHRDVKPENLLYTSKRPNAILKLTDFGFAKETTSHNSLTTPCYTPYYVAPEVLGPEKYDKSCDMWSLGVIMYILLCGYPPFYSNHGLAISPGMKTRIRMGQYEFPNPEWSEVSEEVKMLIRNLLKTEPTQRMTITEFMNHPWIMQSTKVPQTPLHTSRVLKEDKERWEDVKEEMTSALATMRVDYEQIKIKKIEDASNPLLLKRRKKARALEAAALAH
T11 sequence (P31751 whole entry, species assumed): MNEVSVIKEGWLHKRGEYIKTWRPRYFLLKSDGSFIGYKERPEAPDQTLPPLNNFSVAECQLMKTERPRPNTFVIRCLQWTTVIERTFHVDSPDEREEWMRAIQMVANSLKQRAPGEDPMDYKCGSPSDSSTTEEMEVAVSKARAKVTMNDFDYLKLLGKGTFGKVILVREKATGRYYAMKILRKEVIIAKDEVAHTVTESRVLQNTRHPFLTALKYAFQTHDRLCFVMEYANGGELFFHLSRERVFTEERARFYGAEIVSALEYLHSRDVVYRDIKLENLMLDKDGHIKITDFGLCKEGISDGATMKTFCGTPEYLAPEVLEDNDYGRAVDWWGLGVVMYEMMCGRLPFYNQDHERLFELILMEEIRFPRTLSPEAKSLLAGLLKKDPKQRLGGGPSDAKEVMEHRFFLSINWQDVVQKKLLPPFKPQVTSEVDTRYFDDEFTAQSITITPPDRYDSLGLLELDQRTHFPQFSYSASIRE

Question: With c1ccc(Cc2c[nH]c3ncsc23)cc1 [Compound A7, 6-benzyl-4H-pyrrolo[2,3-d]thiazole] as the compound, how does the IC50 [1] read?
Answer: 1000 to 10000 nM

Question: What about the IC50 [2] of the same compound?
Answer: > 1000 nM

Question: What about the IC50 [3] of the same compound?
Answer: > 1000 nM

Question: And the IC50 [4]?
Answer: > 1000 nM

Question: And the IC50 [5]?
Answer: > 1000 nM

Question: And the IC50 [6]?
Answer: > 1000 nM

Question: And the IC50 [7]?
Answer: > 1000 nM

Question: What about the IC50 [8] of the same compound?
Answer: > 1000 nM

Question: And the remaining activity at 1 µM ([9]; read-out: residual kinase activity CK2)?
Answer: 53%

Question: And the IC50 [10]?
Answer: > 1000 nM

Question: What about the IC50 [11] of the same compound?
Answer: > 1000 nM

Question: With Nc1ncsc1C#Cc1cnc2[nH]ccc2c1 [Compound A22, 5-(1H-pyrrolo[2,3-b]pyridin-5-ylethynyl)thiazol-4-ylamine] as the compound, how does the IC50 [1] read?
Answer: 1000 to 10000 nM

Question: What about the IC50 [2] of the same compound?
Answer: > 1000 nM

Question: And the IC50 [3]?
Answer: 1000 to 10000 nM

Question: What about the IC50 [4] of the same compound?
Answer: > 1000 nM

Question: What about the IC50 [5] of the same compound?
Answer: 1000 to 10000 nM

Question: And the IC50 [6]?
Answer: 1000 to 10000 nM

Question: And the IC50 [7]?
Answer: 10000 to 100000 nM

Question: And the IC50 [8]?
Answer: > 1000 nM

Question: And the IC50 [9]?
Answer: > 1000 nM

Question: And the IC50 [10]?
Answer: 10000 to 100000 nM

Question: What about the IC50 [11] of the same compound?
Answer: > 1000 nM

Question: With CC(C)(C)OC(=O)Nc1nc(-c2ccncc2)sc1C#CCN1CCOCC1 [Compound A25, tert-butyl[5-(3-morpholin-4-ylprop-1-ynyl)-2-pyridin-4-ylthiazol-4-yl]-carbamate] as the compound, how does the IC50 [1] read?
Answer: > 1000 nM

Question: What about the IC50 [2] of the same compound?
Answer: > 1000 nM

Question: And the IC50 [3]?
Answer: > 1000 nM

Question: And the IC50 [4]?
Answer: 10000 to 100000 nM

Question: And the IC50 [5]?
Answer: > 1000 nM

Question: And the IC50 [6]?
Answer: 10000 to 100000 nM

Question: And the IC50 [7]?
Answer: > 1000 nM

Question: And the IC50 [8]?
Answer: > 1000 nM

Question: What about the IC50 [9] of the same compound?
Answer: > 1000 nM

Question: And the IC50 [10]?
Answer: > 1000 nM

Question: What about the IC50 [11] of the same compound?
Answer: 1000 to 10000 nM

Question: Which IC50 [1] does the source give for CC(C)(C)OC(=O)Nc1ncsc1C#CCN1C(=O)c2ccccc2C1=O [Compound A26, tert-butyl{5-[3-(1,3-dioxo-1,3-dihydroisoindol-2-yl)prop-1-ynyl]-thiazol-4-yl}carbamate] here?
Answer: > 1000 nM

Question: And the IC50 [2]?
Answer: > 1000 nM

Question: And the IC50 [3]?
Answer: 1000 to 10000 nM

Question: And the IC50 [4]?
Answer: > 1000 nM

Question: What about the IC50 [5] of the same compound?
Answer: > 1000 nM

Question: What about the IC50 [6] of the same compound?
Answer: 1000 to 10000 nM

Question: What about the IC50 [7] of the same compound?
Answer: 1000 to 10000 nM

Question: What about the IC50 [8] of the same compound?
Answer: 10000 to 100000 nM

Question: And the IC50 [9]?
Answer: 10000 to 100000 nM

Question: And the IC50 [10]?
Answer: 10000 to 100000 nM

Question: What about the IC50 [11] of the same compound?
Answer: > 1000 nM

Question: How did the IC50 [1] turn out when Nc1ncsc1C#Cc1cccc(O)c1 [Compound A27, 3-(4-aminothiazol-5-ylethynyl)phenol] was run?
Answer: 1000 to 10000 nM

Question: And the IC50 [2]?
Answer: 10000 to 100000 nM

Question: And the IC50 [3]?
Answer: > 1000 nM

Question: What about the IC50 [4] of the same compound?
Answer: 10000 to 100000 nM

Question: And the IC50 [5]?
Answer: 10000 to 100000 nM

Question: And the IC50 [6]?
Answer: > 1000 nM

Question: And the IC50 [7]?
Answer: 10000 to 100000 nM

Question: What about the IC50 [8] of the same compound?
Answer: 10000 to 100000 nM

Question: What about the IC50 [9] of the same compound?
Answer: > 1000 nM

Question: And the IC50 [10]?
Answer: 1000 to 10000 nM

Question: What about the IC50 [11] of the same compound?
Answer: 1000 to 10000 nM
